Laboratory results taken from PMC7170385, “The selenium-containing drug ebselen potently disrupts LEDGF/p75-HIV-1 integrase interaction by targeting LEDGF/p75” (Journal of Enzyme Inhibition and Medicinal Chemistry, 2020).
pEC50, pIC50, pKd, pKi: −log10 of the molar value. Like-named read-outs stand apart in the source and are kept apart here.

What was measured:
[1] = target: T1, LEDGF/p75 IBD-HIV-1 IN interaction (Homo sapiens, UniProt O75475); test: HTRF-based LEDGF/p75 IBD-IN interaction assay
T1 sequence (O75475 347-429 limits assumed): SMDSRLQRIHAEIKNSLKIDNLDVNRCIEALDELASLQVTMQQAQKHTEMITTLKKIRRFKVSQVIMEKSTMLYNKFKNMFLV

LEDGF/p75-IN interaction = tested on: LEDGF/p75-IN interaction; parameters: method as in PMID 21222490; conditions: cited from earlier work
LEDGF/p75 = LEDGF/p75 (Homo sapiens, UniProt O75475); test: Biolayer interferometry (BLI) binding assay
Method: A protein binding assay was performed by biolayer interferometry (BLI) as described previously. First, purified recombinant LEDGF/p75 protein was biotinylated using the Thermo EZLink long-chain biotinylation reagent. Then, biolayer interferometry (BLI) assay was performed using an OctetRED96 instrument from PALL/ForteBio. All assays were run at 30 °C with continuous 1000 rpm shaking. PBS with 0.01% Tween-20 was used as the assay buffer. Briefly, biotinylated LEDGF/p75 protein was tethered on Super Streptavidin (SSA) biosensors (ForteBio) by dipping sensors into 200 µl per well 50 µg/ml protein solutions. The measurement processes were all under computer control. Programme procedures were established as follows: For the initial step, biosensors were washed in assay buffer for 300 s to form a baseline; the biosensors labelled with biotin-LEDGF/p75 were exposed to 100 µM compounds for association, and were monitored for 600 s; and then, the biosensors were moved back into assay buffer to disassociate for another 1800s. Data were fit globally and generated automatically by Octet User software (version 9.0.0.10; Fortebio).

HIV-1 = tested on: HIV-1; parameters: method as in PMID 26810656; conditions: previous study; read-out: 50% effective concentration (EC50), replication of HIV-1; cited from earlier work
[2] = parameters: method as in PMID 26810656; conditions: previous study; read-out: half-maximal cytotoxic concentration (CC50); cited from earlier work
[3] = target: Cryptosporidium parvum glucose-6-phosphate isomerase; parameters: method as in Eltahan et al.[46]; conditions: ref Eltahan et al.[46]; cited from earlier work
[4] = tested on: Tumor marker endothelial 8 and protective antigen interaction; conditions: cited from earlier work
[5] = target: Trypanosoma brucei hexokinase 1; parameters: method as in Gordhan et al.[47]; conditions: ref Gordhan et al.[47]; cited from earlier work
[6] = tested on: Escherichia coli thioredoxin reductase; parameters: method as in Lu et al.[48]; conditions: cell marked (Ki); ref Lu et al.[48]; cited from earlier work
[7] = tested on: C-terminal domain of HIV-1 capsid; parameters: method as in Thenin-Houssier et al.[39]; conditions: ref Thenin-Houssier et al.[39]; cited from earlier work
[8] = target: Bacillus anthracis thioredoxin reductase; conditions: ref Gustafsson et al.[49]; cited from earlier work
[9] = tested on: Clostridium difficile cysteine protease domain; parameters: method as in Bender et al.[50]; conditions: ref Bender et al.[50]; cited from earlier work
[10] = target: New Delhi metallo-β-lactamase; parameters: method as in Chiou et al.[51]; conditions: ref Chiou et al.[51]; cited from earlier work
[11] = tested on: Mycobacterium tuberculosis antigen 85; parameters: method as in Favrot et al.[52]; conditions: ref Favrot et al.[52]; cited from earlier work
[12] = tested on: Hepatitis C Virus NS3 Helicase-Nucleic Acid interaction; parameters: method as in Mukherjee et al.[53]; conditions: ref Mukherjee et al.[53], cited from earlier work
[13] = target: Cryptosporidium parvum Inosine 5′-monophosphate dehydrogenase; parameters: method as in Sarwono et al.[54]; conditions: ref Sarwono et al.[54]; cited from earlier work
[14] = tested on: Pseudomonas aeruginosa Diguanylate Cyclases; parameters: method as in Lieberman et al.[55]; conditions: ref Lieberman et al.[55]; cited from earlier work

LEDGF/p75, sequence (O75475 whole entry): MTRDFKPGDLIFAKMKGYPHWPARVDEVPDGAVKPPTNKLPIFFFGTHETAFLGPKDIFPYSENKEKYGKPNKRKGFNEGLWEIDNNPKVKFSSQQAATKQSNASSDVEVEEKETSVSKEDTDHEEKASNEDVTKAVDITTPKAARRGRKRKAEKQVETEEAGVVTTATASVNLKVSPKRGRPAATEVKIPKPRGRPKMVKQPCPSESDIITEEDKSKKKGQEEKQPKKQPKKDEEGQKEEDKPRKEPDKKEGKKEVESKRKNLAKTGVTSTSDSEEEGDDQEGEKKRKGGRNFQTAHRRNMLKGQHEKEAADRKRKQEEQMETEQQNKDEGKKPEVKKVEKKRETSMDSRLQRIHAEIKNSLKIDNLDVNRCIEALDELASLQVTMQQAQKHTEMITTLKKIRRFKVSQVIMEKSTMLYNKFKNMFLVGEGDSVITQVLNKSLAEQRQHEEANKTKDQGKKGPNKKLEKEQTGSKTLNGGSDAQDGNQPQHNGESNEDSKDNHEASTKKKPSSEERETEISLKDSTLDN

Structure (SMILES): COc1cc(/C=C/C(=O)CC(=O)/C=C/c2ccc(O)c(OC)c2)ccc1O [Compound 2, Curcumin]
- pIC50 [1]: 4.84

Structure (SMILES): O=S(=O)(c1c(O)c(Cl)cc(Cl)c1Cl)c1c(O)c(Cl)cc(Cl)c1Cl [Compound 3, p38 MAP kinase inhibitor IV]
- pIC50 [1]: 3.93

Structure (SMILES): CCN1C(=O)C=CC1=O [N-Ethylmaleimide]
- pIC50 [1]: 3.25

Structure (SMILES): NC(=O)CI [Iodoacetamide]
- IC50 ([1]; HTRF, 12-point dose-response 0.024 to 50 µM, His6-HIV-1 IN 50 nM, GST-IBD): > 1e+07 nM

Structure (SMILES): O[C@@H](CS)[C@@H](O)CS (racemic) [DTT, dithiothreitol]
- Inhibitory effect of DTT on LEDGF/p75-IN interaction (LEDGF/p75-IN interaction; at 50 µM): negligible
- pIC50 (LEDGF/p75-IN interaction): 2.35

Structure (SMILES): O=c1c2ccccc2[se]n1-c1ccccc1 [Compound 1, 2-phenyl-1,2-benzisoselenazol-3-one]
- pKd (LEDGF/p75; BLI Octet Red, biotinylated LEDGF/p75, 30 °C): 7.88
- Dissociation from LEDGF/p75 (LEDGF/p75; BLI, dissociation in assay buffer 1800 s): do not show obvious dissociation
- pEC50 (HIV-1): 5.70
- CC50 [2]: 25.4 µM
- pIC50 [3]: 5.08
- pIC50 [4]: 5.77
- pIC50 [5]: 7.30
- pKi [6]: 6.28
- pIC50 [7]: 7.33
- pIC50 [8]: 6.00
- pIC50 [9]: 8.16
- pIC50 [10]: 6.42
- pIC50 [11]: 7.20
- pIC50 ([12]; first value of cell 1.1/0.9, difference not explained, read-out: IC50 (first of two values printed)): 5.96
- pIC50 ([12]; second value of cell 1.1/0.9, difference not explained, read-out: IC50 (second of two values printed)): 6.05
- pIC50 [13]: 6.15
- pIC50 [14]: 5.30
- pIC50 [1]: 5.11
- HTRF signal when IBD was pre-incubated with compound ([1]; IBD pre-incubated with ebselen): dramatical decrease
- HTRF signal when IN was pre-incubated with compound ([1]; IN pre-incubated with ebselen): no obvious signal change
- Inhibitory effect on LEDGF/p75 IBD-IN interaction in the presence of DTT ([1]; in the presence of 50 µM dithiothreitol (DTT)): completely abolished
- Time-dependent inhibition (change of affinity over time) ([1]; over 1 h): increase in its affinity

Structure (SMILES): CCN(CC)C(=S)SSC(=S)N(CC)CC [Disulfiram]
- pIC50 [1]: 4.63
